Data as given in patent US12384797B2, “Thioeno[3,2-b] pyridin-7-amine compounds for treating familial dysautonomia” (PTC THERAPEUTICS, INC., priority 2019, dated 2025).

The compounds below were run on Elongator complex protein 1 (ELP1, also referred to as IKBKAP) (assay: IKBKAP-HTRF assay (IKBKAP protein in lysates of FD patient-derived fibroblasts)). Details: 48 hours incubation, 7-point concentration curve.
Format: cell-based, human
How it was run: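 Sandwich HTRF with two labelled anti-IKAP antibodies (overnight, 4 °C) measured IKBKAP in lysates of FD patient fibroblasts. Cells were exposed to compound for 48 h at 37 °C (7-point curve, 3.16-fold steps, triplicates). EC2x is the dose doubling IKBKAP versus DMSO control; MFI is sample ΔF divided by vehicle ΔF.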

SMILES	EC2x for IKBKAP protein expression (concentration producing two times the amount of IKBKAP protein vs DMSO vehicle control)	MFI (maximum fold increase in IKBKAP protein abundance relative to the vehicle control)
COc1c(C[C@H](C)N)sc2c(NCc3ccco3)cc(Cl)nc12 [Compound 136, 2-[(2S)-2-aminopropyl]-5-chloro-N-[(furan-2-yl)methyl]-3-methoxythieno[3,2-b]pyridin-7-amine]	***** (≤0.005 μM is indicated by five stars (*****))	***** (>4.9 is indicated by five stars (*****))
COc1csc2c(NCc3ccco3)cc(Cl)nc12 [Compound 137, 5-chloro-N-[(furan-2-yl)methyl]-3-methoxythieno[3,2-b]pyridin-7-amine]	*** (between >0.02 μM and ≤0.5 μM is indicated by three stars (***))	***** (>4.9 is indicated by five stars (*****))
C[C@H](N)Cc1sc2c(NCc3ccco3)cc(Cl)nc2c1C#N [Compound 109, 2-[(2S)-2-aminopropyl]-5-chloro-7-{[(furan-2-yl)methyl]amino}thieno[3,2-b]pyridine-3-carbonitrile]	***** (≤0.005 μM is indicated by five stars (*****))	***** (>4.9 is indicated by five stars (*****))
Oc1csc2c(NCc3cccs3)cc(Cl)nc12 [Compound 138, 5-chloro-7-{[(thiophen-2-yl)methyl]amino}thieno[3,2-b]pyridin-3-ol]	*** (between >0.02 μM and ≤0.5 μM is indicated by three stars (***))	** (between >1.9 and ≤2.9 is indicated by two stars (**))
C[C@H](N)Cc1sc2c(NCc3ccco3)cc(C#N)nc2c1Br [Compound 49, 2-[(2S)-2-aminopropyl]-3-bromo-7-{[(furan-2-yl)methyl]amino}thieno[3,2-b]pyridine-5-carbonitrile]	***** (≤0.005 μM is indicated by five stars (*****))	***** (>4.9 is indicated by five stars (*****))
N[C@@H](CF)Cc1sc2c(NCc3nccs3)cc(Cl)nc2c1Br [Compound 70, 2-[(2R)-2-amino-3-fluoropropyl]-3-bromo-5-chloro-N-[(1,3-thiazol-2-yl)methyl]thieno[3,2-b]pyridin-7-amine]	***** (≤0.005 μM is indicated by five stars (*****))	***** (>4.9 is indicated by five stars (*****))
Cc1c(C[C@H](C)N)sc2c(NCc3cccs3)cc(Cl)nc12 [Compound 28, 2-[(2S)-2-aminopropyl]-5-chloro-3-methyl-N-[(thiophen-2-yl)methyl]thieno[3,2-b]pyridin-7-amine]	***** (≤0.005 μM is indicated by five stars (*****))	***** (>4.9 is indicated by five stars (*****))
N[C@@H](CCF)Cc1sc2c(NCc3cccs3)cc(Cl)nc2c1Br [Compound 74, 2-[(2S)-2-amino-4-fluorobutyl]-3-bromo-5-chloro-N-[(thiophen-2-yl)methyl]thieno[3,2-b]pyridin-7-amine]	***** (≤0.005 μM is indicated by five stars (*****))	***** (>4.9 is indicated by five stars (*****))
CN[C@H](c1sc2c(NCc3ccco3)cc(Cl)nc2c1C)C(C)C [Compound 32, 5-chloro-N-[(furan-2-yl)methyl]-3-methyl-2-[(1S)-2-methyl-1-(methylamino)propyl]thieno[3,2-b]pyridin-7-amine]	* (An EC2x>1 μM is indicated by one star (*))	* (An MFI≤1.9 is indicated by one star (*))
Cc1cc(NCc2nccs2)c2scc(Cl)c2n1 [Compound 10, 3-chloro-5-methyl-N-[(1,3-thiazol-2-yl)methyl]thieno[3,2-b]pyridin-7-amine]	* (An EC2x>1 μM is indicated by one star (*))	* (An MFI≤1.9 is indicated by one star (*))
N[C@H](Cc1sc2c(NCc3ccco3)cc(Cl)nc2c1Cl)C(=O)O [Compound 121, 3-(3,5-dichloro-7-{[(furan-2-yl)methyl]amino}thieno[3,2-b]pyridin-2-yl)-D-alanine]	**** (between >0.005 μM and ≤0.02 μM is indicated by four stars (****))	**** (between >3.9 and ≤4.9 is indicated by four stars (****))
C[C@H](N)C(F)c1sc2c(NCc3nccs3)cc(Cl)nc2c1Br (stereo partly drawn) [Compound 161, 2-[(2S)-2-amino-1-fluoropropyl]-3-bromo-5-chloro-N-[(1,3-thiazol-2-yl)methyl]thieno[3,2-b]pyridin-7-amine]	***** (≤0.005 μM is indicated by five stars (*****))	*** (between >2.9 and ≤3.9 is indicated by three stars (***))
